One data set relates to HTB14 cells. As to the kind of experiment: viability of HTB14 cells. The data set is classed as cell-based, human. As to conditions: 0-50 μM, 48 hours. As for the experimental part:
Fos and jun activity are also required for cellular proliferation in many tumor cell lines. Accordingly, the effect of orthovanadate on adherent cells and cell suspensions were examined. MDAY-D2 (a mouse lymphoid cell line grown in suspension) and HTB14 cells (an adherent human primary astrocytoma cell line) were incubated in media containing 0-50 μM orthovanadate for 48 hours. The cells were harvested and the number of viable cells determined.

The next data set relates to KB8, KB8-5 and KB85-11. The data set is described as follows: killing of drug resistant ovarian cancer cell lines KB8, KB8-5 and KB85-11. Type of data set: cell-based. As to conditions: 0-50 μM, 48 hours. As for the experimental part: The effect of orthovanadate on three ovarian cancer cell lines, KB8, KB8-5 and KB85-11, which have increasing drug resistance, respectively, relative to the parent cell line, KB3-1 was compared. These drug resistant cell lines are not killed by several classes of chemotherapeutic agents such as colchicine, vinblastine and doxorubicin. In the study, cell lines of increasing drug resistance (KB8, KB8-5 and KB-85-11) and the parent cell line, KB3-1, were incubated in media (DMEM) containing 0-50 μM orthovanadate for 48 hours. The cells were harvested and the number of viable cells determined.

The subject of a further data set is PGE2. As to the kind of experiment: PGE2 production by chondrocytes (RIA). Type of data set: cell-based, bovine. As to conditions: 100 μM. As for the experimental part: (§1) The effect of orthovanadate and N-acetylcysteine on fos, jun and collagenase expression were examined. Bovine articular chondrocytes were isolated and plated as previously described (Kandel R. A. et al. Biochim. Biophys. Acta. 1053, 130-134, 1990). In order to determine the effect of orthovanadate on IL 1 and PMA (phorbol ester) induced responses, chondrocytes were incubated with orthovanadate (100 μM) for 2 hours before stimulation with IL 1 (10 ng/ml) or PMA ([…]). Collagenase production was determined by incubating chondrocytes for 24 hours with IL 1 or PMA and the cell conditioned medium was assayed for collagenase activity using an ELISA procedure as described previously (Kandel et al. supra). PLA2 activity was measured by incorporating ^3 H-arachidonic acid (^3 H-AA) into the cells and then incubating the cells with medium containing 1 mg/ml BSA, either alone or in the presence of IL 1 or PMA, for 10 min. as previously described (Conquer, J. A. […], Biochim. Biophys. Acta. 1134, 1-6). The amount of ^3 H-AA liberated into the supernatant was determined. To measure PGE2 production, chondrocytes were incubated for 6 hours in Ham's F12 medium, either alone or with IL 1 or PMA. The supernatant was analyzed by RIA using an antibody specific for PGE2 (Dr. S. A. Jones, Mount Sinai Hospital, Toronto, Canada). […]

A further data set concerns synoviocytes. The data set is described as follows: synoviocyte proliferation, dye exclusion (Example 24). The data set is classed as cell-based. As for the experimental part:
The effect of vanadium compounds on synoviocyte proliferation was investigated as follows. Synoviocytes were plated on six well plates and treated with orthovanadate or vanadyl sulphate and incubated for 24 hours. The cells were removed and the number of viable cells determined by the dye exclusion method.

The next data set relates to jun. The data set is described as follows: jun / c-jun mRNA expression in chondrocytes (Northern blot). Type of data set: cell-based, bovine. As to conditions: 100 μM.
From the text: The cytokine interleukin 1 (IL 1) has been used to identify the intermediate second messengers which regulate the expression of fos and jun.
Although IL 1 stimulated superoxide production, it was not known whether IL 1 induced fos and jun expression was dependent on the production of superoxides. In order to elucidate this possibility, the effect of DPI on fos and jun mRNA levels induced by IL 1 was investigated. RNA from chondrocytes treated with IL 1 in the presence and absence of DPI were analyzed by Northern blot analysis using either fos or collagenase cDNA probes. […] Similar data has been obtained for IL 1 induced jun expression. Furthermore, inhibition of fos and jun expression by DPI was sufficient to suppress IL 1 induced and constitutive collagenase expression.
as §1, with “To measure PGE2 production, chondrocytes were incubated for 6 hours in Ham's F12 medium, either alone or with IL 1 or PMA.” left out

The next data set concerns tumor growth. As to the kind of experiment: different concentrations of BMOV on tumor growth (Example 23). Type of data set: in vivo, mice. Set-up: Tumour weight / Tumour weight, Means: unit not given here. As to conditions: for Tumour weight: individual mice. The procedure: In this experiment we determined the optimum concentration for inhibition of tumor growth as follows.
Forty mice were subcutaneously injected with tumor cells (10×10^6/ml)on day 1. On day 5, the mice were divided into five groups as follows: Group 1; control, PBS injected; Group 2: 0.1% BMOV injected; Group 3: 0.25% BMOV injected; Group 4: 0.5% BMOV injected and; Group 5: 0.75% BMOV injected. All the mice were injected (I.P.) with 2 mg NAC before injection of BMOV. […] The effective concentrations of BMOV are from 0.1% to 0.75%.

Data set [1] can be described thus: body weights of mice, BMOV solution and beads (Example 19). Type of data set: in vivo. As for the experimental part: On day 6 the mice were divided into 6 groups as follows: group 1, empty control; group 3, tumor control; group 3, injected subcutaneously with 0.25 mg/100μl BMOV, twice a day; group 4, injected IP with 20 mg palla beads containing 5 mg of BMOV; group 5, injected IP with 10 mg of BMOV beads on day 6 and day 9 respectively and; group 6, injected intramuscularly with 10 mg of BMOV beads on day 6 and day 9. On day 16, the mice were sacrificed and tumors were dissected.
The body weights of mice in control and treated groups, and the tumor weights from control and treated mice, are shown in Tables 5 and 6 respectively.

Values joined by “and” are separate entries in the source; they are usually repeats but may differ in a detail not shown here. Equal entries are not always repeated.

As to `[Na+].[Na+].[Na+].[O]=[V]([O-])([O-])[O-]` [orthovanadate, sodium orthovanadate], the “toxicity to HTB14 cells” value in the data set with HTB14 cells is “toxic”. The “killing of drug resistant cell lines” value with KB8, KB8-5 and KB85-11 is on record as “equally effective”. Also, in the data set with PGE2, the “inhibition of IL 1 or PMA induced PGE2 production” value is “did not inhibit”. For the same compound, the Number of cells in the data set with synoviocytes (25 μM, 24 hours (control 2.6)) is reported as 0.1 10^-5. In the data set with synoviocytes (24 hours), the cytotoxicity to synoviocytes entry is “cytotoxic to the cells” and the synoviocyte proliferation result is listed as “inhibited synoviocyte proliferation”. In the data set with jun, the “inhibition of IL 1, PMA and AA induced c-jun expression” value is on record as “completely inhibited”.
For the compound `Cc1occc(=O)c1[O-].Cc1occc(=O)c1[O-].[O]=[V+2]` [BMOV, bis(methylmaltolato) oxovanadium (IV)], the Tumour weight is 0.44 and 0.40 and 0.48 and 0.62 and 0.54 and 0.84 and 0.18 and 0.87 in the data set with tumor growth (0.1% BMOV + 2 mg NAC i.p.); 0.14 and 0.23 and 0.73 and 0.04 and 0.21 and 0 with tumor growth (0.25% BMOV + 2 mg NAC i.p.); 0.40 and 0.20 and 0.07 and 0.17 and 0.06 and 0 in the data set with tumor growth (0.5% BMOV + 2 mg NAC i.p.); 0.07 and 0.16 and 0.08 and 0.21 and 0.13 and 0 with tumor growth (0.75% BMOV + 2 mg NAC i.p.). The “Tumour weight, Means” value with tumor growth (0.1% BMOV + NAC) is recorded as 0.55; with tumor growth (0.25% BMOV + NAC), 0.18; with tumor growth (0.5% BMOV + NAC), 0.22; in the data set with tumor growth (0.75% BMOV + NAC), 0.09. The death of animal result in the data set with tumor growth (0.75% BMOV + NAC, mouse 8) is listed as “died”. Moreover, the “Body weight, Average” value in data set [1] (BMOV solution 0.25 mg × 1) is on record as 17.87. Besides, the Body weight in data set [1] (BMOV solution 0.25 mg × 1, individual mice) was 18.8 and 17.8 and 18.4 and 17.3.

For the origin of these results see US5871779A, “Treatment of arthropathies with vanadate compounds or analogues thereof” (Mount Sinai Hospital Corporation, priority 1996, dated 1999).
